Laboratory results reported in BindingDB's records for doi:10.1016/s0960-894x(01)00264-5 (Shionogi, 2001).

Target: Chymotrypsinogen A (Bos taurus) (UniProt P00766)
Assay: Compound was evaluated for its inhibitory activity against bovine pancreatic alpha-chymotrypsin

- IC50: 2.4 nM
Compound: Cc1ccc(N2C(=O)N(c3ccc(C)cc3)C2=O)cc1 [1,3-Di-p-tolyl-[1,3]diazetidine-2,4-dione]
